Source: PubChem BioAssay (NCI)
Several values for one entry are separate records, joined by “and”; a condition that tells them apart may be missing. Identical values can stand only once.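 Where inhibition never reached the appropriate level, the endpoint shown equals the highest concentration tested. Otherwise, values were interpolated linearly from a five-concentration, 48-hour dose response in 96-well plates. GI50 is the concentration that inhibits growth by half. TGI marks complete inhibition of growth.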

Legend:
Test in all cases: NCI tumour cell line growth inhibition, 48 h
DLD-1 colon = system: DLD-1 colon
HOP-18 NSCLC = system: HOP-18 NSCLC
KM20L2 colon = system: KM20L2 colon
LXFL 529 NSCLC = system: LXFL 529 NSCLC
M19-MEL melanoma = system: M19-MEL melanoma
RXF-631 renal = system: RXF-631 renal
SNB-78 CNS = system: SNB-78 CNS
XF 498 CNS = system: XF 498 CNS
MDA-N = system: MDA-N
P388 leukemia = system: P388 leukemia
P388/ADR leukemia = system: P388/ADR leukemia
SN12K1 renal = system: SN12K1 renal

| Structure (SMILES) | TGI (DLD-1 colon) | TGI (HOP-18 NSCLC) | TGI (KM20L2 colon) | TGI (LXFL 529 NSCLC) | TGI (M19-MEL melanoma) | TGI (RXF-631 renal) | TGI (SNB-78 CNS) | TGI (XF 498 CNS) | TGI (MDA-N) [µM] | other results |
| --- | --- | --- | --- | --- | --- | --- | --- | --- | --- | --- |
| O=C(CC/C(CC(=O)c1ccc(Cl)cc1)=N/O)Nc1ccc(Cl)c(Cl)c1 | > 100 µM | > 100 µM | > 100 µM | > 100 µM | > 100 µM | > 100 µM | > 100 µM | > 100 µM |  |  |
| Cc1ccc(-c2nc3c(C(=O)NCCN(C)C)cccc3[nH]2)cc1 | 73.2 µM | 51.5 µM |  |  | 29.7 µM | 31 µM | 83.3 µM |  |  |  |
| Nc1nc(Cl)c(N=Nc2ccc(Cl)cc2)c(NCC2(CO)CC(OCc3ccccc3)C2)n1 (stereo unspecified) |  |  |  |  |  |  |  |  | > 100 | GI50 (MDA-N): 29.5 µM and > 100 µM and 11.8 µM |
| Cc1[nH]n(-c2ccc(S(=O)(=O)O)cc2)c(=O)c1N=Nc1ccccc1 |  |  |  |  |  |  |  |  | > 100 |  |
| C/C1=C\CC[C@@]2(C)O[C@@H]2C[C@@H]2[C@H](C/C(C)=C/CC1)OC(=O)C21CCN=N1 (stereo partly specified) |  |  |  |  |  |  |  |  | > 100 | GI50 (MDA-N): > 100 µM |
| S=P1(c2ccccc2)Nc2ccc(Cl)cc2N1 (stereo unspecified) | > 100 µM | > 100 µM | > 100 µM | > 100 µM | 67.2 µM | > 100 µM | > 100 µM | > 100 µM |  |  |
| N#Cc1c(-c2ccc(Cl)cc2)c(-c2ccc(Cl)cc2)nn(CCOC(=O)CCC(=O)O)c1=O | > 100 µM | > 100 µM | 4.89 µM | > 100 µM | > 100 µM |  |  |  | 0.202 |  |
| N#CCc1ccc(/C(C#N)=C2/OC(=N)C(c3ccc(CC#N)cc3)C2=O)cc1 (stereo unspecified) | > 100 µM |  | > 100 µM | > 100 µM | > 100 µM | > 100 µM | > 100 µM | > 100 µM |  |  |
| CCCCCCCCCCCCCC(=O)OC(/C=C/C(C)C)C(O)C(O)C(OC)C(=O)NC1CCCCNC1=O (stereo unspecified) | 5.07 µM | 10.5 µM | 4.89 µM | 4.88 µM |  |  | 9.18 µM | 5.47 µM |  |  |
| CN(C)CC(C)(C)C(/C=C/c1ccccc1)=N\Nc1ccccc1 | 11.6 µM | 73.1 µM | 0.0605 µM | 0.446 µM | 22.3 µM |  | 26.8 µM |  |  |  |
| Cn1cnc([N+](=O)[O-])c1Sc1nc2cccnc2s1 | 26.7 µM |  | 31.7 µM | 25 µM | 29.6 µM | 28.4 µM | > 100 µM | 39.2 µM |  |  |
| CCOCC(=O)N[C@H]1CCc2cc(OC(=O)COCC)c(OC)c(OC)c2-c2ccc(SC)c(=O)cc21 |  |  |  |  |  |  |  |  | 0.00611 |  |
| Oc1ccc2ccccc2c1C(c1ccc(Cl)cc1)c1c(O)ccc2ccccc12 |  |  |  |  |  |  |  |  | 12.2 |  |
| COc1ccc2cc3[n+](cc2c1OC)CCc1cc2c(cc1-3)OCO2 | > 59.9 µM and 253 µM | > 100 µM and 207 µM | > 92.5 µM and 94.6 µM | > 74.9 µM | 22.4 µM and 41.6 µM |  | > 100 µM and 167 µM | 66.6 µM and 31.4 µM |  | GI50 (DLD-1 colon): 26.2 µM and 54.2 µM; TGI (P388 leukemia): 69.6 µM; TGI (P388/ADR leukemia): > 325 µM; TGI (SN12K1 renal): 37.7 µM |
| COCOCc1cc(OCc2ccccc2)c(OC)cc1Br | > 100 µM | > 100 µM | > 100 µM |  | > 100 µM |  | > 100 µM | > 100 µM |  |  |
| O=C1Nc2ccccc2/C1=C/c1ccccc1 |  |  |  |  |  |  |  |  | 40.7 |  |
| Oc1ccc2c3c1OC1C(=NN=C4CCC5(O)C6Cc7ccc(O)c8c7C5(CCN6CC5CC5)C4O8)CCC4(O)C(C2)N(CC2CC2)CCC314 (stereo unspecified) | > 100 µM | > 100 µM | 41.7 µM | 43.5 µM | 40.9 µM |  | > 100 µM | 34.3 µM |  |  |
| N#CCCN(CCC#N)c1ccc(/C=N\c2nc(-c3ccccc3)cs2)cc1 | > 100 µM |  | > 100 µM | > 100 µM | > 100 µM | > 100 µM | > 100 µM | > 100 µM |  |  |

| Structure (SMILES) | TGI (DLD-1 colon) | TGI (HOP-18 NSCLC) | TGI (KM20L2 colon) | TGI (LXFL 529 NSCLC) | TGI (M19-MEL melanoma) | TGI (RXF-631 renal) | TGI (SNB-78 CNS) | TGI (XF 498 CNS) | TGI (MDA-N) [µM] | other results |
| --- | --- | --- | --- | --- | --- | --- | --- | --- | --- | --- |
| C=CCC12CC(=O)C=C1CCC1(C2)OCCO1 (stereo unspecified) | > 100 µM | > 100 µM | > 100 µM | > 100 µM | > 100 µM | > 100 µM | > 100 µM |  |  |  |
| COc1ccc(NC(=O)COC(=O)c2cccc3c(=O)c4ccccc4[nH]c23)cc1 | 31.9 µM | 93.8 µM | 51.7 µM | 43.3 µM | 39 µM |  | 64.2 µM | 36.5 µM |  |  |
| O=C1CCCC(=O)C1=C(O)CCCCCCCCCCc1ccccc1 | > 100 µM | > 100 µM | > 100 µM | > 100 µM | 97.9 µM |  | > 100 µM | > 100 µM |  |  |
| O=C1Cc2ccccc2N1c1c(Cl)cccc1Cl | > 100 µM | > 100 µM | > 100 µM | > 100 µM | > 100 µM | > 100 µM | > 100 µM | 82.3 µM |  |  |
| CN(C)c1ccc(/C=C/c2ccnc3ccccc23)cc1N |  |  |  |  |  |  |  |  | 12 |  |
| CCC[CH2][Sn]1([CH2]CCC)[O]C(=O)c2cccc(OC)c2[O]1 | 0.986 µM | 1.95 µM | 2.68 µM | 0.212 µM | 1.23 µM |  | 0.959 µM | 0.28 µM |  | GI50 (DLD-1 colon): 0.244 µM; GI50 (HOP-18 NSCLC): 0.687 µM; GI50 (KM20L2 colon): 1.33 µM; GI50 (LXFL 529 NSCLC): 0.0427 µM; GI50 (M19-MEL melanoma): 0.222 µM; GI50 (SNB-78 CNS): 0.093 µM; GI50 (XF 498 CNS): 0.131 µM |
| Cc1cc(Cl)ccc1NC(=O)CC1SC(N)=NC1=O (stereo unspecified) | > 100 µM | > 100 µM | > 100 µM | > 100 µM | > 100 µM | > 100 µM |  |  |  |  |
| Cn1cnc([N+](=O)[O-])c1SC1=NCCS1 | > 100 µM | > 100 µM |  | > 100 µM | > 100 µM |  | > 100 µM | > 100 µM |  |  |
| N#CCC12CC=CCC1=C(O)C(=O)c1ccc(O)cc12 (stereo unspecified) |  |  |  |  |  |  |  |  | > 100 |  |
| O=C1C2C(C(=O)N1c1ccccc1)C1(c3ccccc3)OC2(c2ccccc2)c2ccccc21 (stereo unspecified) | > 100 µM | > 100 µM | > 100 µM | > 100 µM | > 100 µM | > 100 µM |  |  |  |  |
| Cc1ccc(NC(=O)COC(=O)c2cccc3c(=O)c4ccccc4[nH]c23)cc1 | > 100 µM | > 100 µM | > 100 µM | > 100 µM | > 100 µM | > 100 µM | > 100 µM | 78.3 µM |  |  |
| CC1C=CC(C)C2(O)C(=O)NC(O)C12 (stereo unspecified) | > 100 µM | > 100 µM | > 100 µM | > 100 µM | > 100 µM | > 100 µM | > 100 µM |  |  |  |
| O=C(Nc1ccc([N+](=O)[O-])cc1C(=O)O)c1ccc([N+](=O)[O-])cc1 | > 100 µM |  | 64.9 µM | > 100 µM | > 100 µM | > 100 µM |  | > 100 µM |  |  |
| CCOC(=O)N[C@H]1CCc2cc(O)c(OC)c(OC)c2-c2ccc(SC)c(=O)cc21 | > 100 µM | > 100 µM | 0.0301 µM | > 92.3 µM | > 100 µM | 2.91 µM | > 8 µM | > 44.4 µM |  |  |
| C/C=C(\CCC1NCCc2c1[nH]c1ccccc21)[Si](C)(C)C (stereo unspecified) | 14.1 µM and 11.3 µM | 50.8 µM and 19.1 µM | 11.7 µM and 4.12 µM | 9.27 µM and 3.2 µM | 12.9 µM and 3.89 µM | 17.1 µM and 13.9 µM | 24.5 µM and 11.7 µM | 6.99 µM and 2.75 µM | 3.74 | GI50 (KM20L2 colon): 5.29 µM and 1.92 µM; GI50 (M19-MEL melanoma): 6.62 µM and 1.95 µM |
| CC(C)=CC(O)C/C(C)=C/CC/C(C)=C/CCC1(C)C(CCCO)/C(=C(/C)C=O)CCC1(C)O (stereo unspecified) |  |  |  |  |  |  |  |  | 52.4 |  |
| C#C[C@@]1(O)CCCC2=CC(=O)C[C@]21C | > 100 µM | > 100 µM |  | > 100 µM | > 100 µM |  |  | > 100 µM |  |  |
